Experimental data taken from the supplement of paper PMC10307832.

Key:
Test in all cases: relative viability (nuclei count vs DMSO), 5 days (fraction); higher = more cells survive
[1] = compound: CC(C)(C)c1nc(-c2cccc(NS(=O)(=O)c3c(F)cccc3F)c2F)c(-c2ccnc(N)n2)s1 [Dabrafenib] + Cc1cc(Nc2cc(N3CCN(C)CC3)nc(Sc3ccc(NC(=O)C4CC4)cc3)n2)n[nH]1 [Tozasertib] (partner 0.1 µM)
Procedure, shortened: (§1)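 Relative viability is defined as nuclei in treated wells over nuclei in vehicle wells. Duplicate plates were run and medians reported. Lung cancer cell lines in 1536-well plates were dosed by pin tool one day after seeding, with one drug or with a fixed anchor-drug dose plus five library-drug doses (not always all listed) in √10 steps, and nuclei were counted after 5 days.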

[2] = compound: NC(=O)c1ccc(N(C(N)=O)c2c(F)cccc2F)nc1-c1ccc(F)cc1F [VX-702] + CC1(C)CCC(c2ccc(Cl)cc2)=C(CN2CCN(c3ccc(C(=O)NS(=O)(=O)c4ccc(N[C@H](CCN5CCOCC5)CSc5ccccc5)c(S(=O)(=O)C(F)(F)F)c4)cc3)CC2)C1 [Navitoclax] (partner 0.5 µM)
Procedure, shortened: as §1

[3] = compound: NC(=O)c1ccc(N(C(N)=O)c2c(F)cccc2F)nc1-c1ccc(F)cc1F [VX-702] + C[C@@H](Oc1cc(-c2cnn(C3CCNCC3)c2)cnc1N)c1c(Cl)ccc(F)c1Cl [Crizotinib] (partner 1 µM)
Procedure, shortened: as §1

[4] = compound: NC(=O)c1ccc(N(C(N)=O)c2c(F)cccc2F)nc1-c1ccc(F)cc1F [VX-702] + Nc1nc2[nH]cc(CCc3ccc(C(=O)N[C@@H](CCC(=O)O)C(=O)O)cc3)c2c(=O)[nH]1 [Pemetrexed] (partner 0.2 µM)
Procedure, shortened: as §1

Cell Line	relative viability ([1]; first compound 0.003 µM)	relative viability ([1]; first compound 0.009487 µM)	relative viability ([1]; first compound 0.03 µM)	relative viability ([1]; first compound 0.09487 µM)	relative viability ([1]; first compound 0.3 µM)	relative viability ([2]; first compound 0.02 µM)	relative viability ([2]; first compound 0.2 µM)	relative viability ([2]; first compound 0.6325 µM)	relative viability ([2]; first compound 2 µM)	relative viability ([3]; first compound 0.02 µM)	relative viability ([3]; first compound 0.2 µM)	relative viability ([3]; first compound 0.6325 µM)	relative viability ([3]; first compound 2 µM)	relative viability ([4]; first compound 0.02 µM)	relative viability ([4]; first compound 0.2 µM)	relative viability ([4]; first compound 0.6325 µM)	relative viability ([4]; first compound 2 µM)
HOP-62	0.422	0.39	0.331	0.362	0.399	1.28	0.848	1.03	1.15	0.946	0.651	0.549	0.915	0.365	0.311	0.284	0.309
IA-LM						0.928	0.853	0.658	0.905	0.792	0.862	0.722	1.05				
LC-2-ad		0.453	0.422	0.447	0.429	0.467	0.565	0.475	0.561	0.502		0.449	0.504	0.275	0.271	0.269	0.274
LCLC-97TM1	0.218	0.209	0.287	0.249	0.186	0.379	0.458	0.344	0.489	0.285	0.342	0.421	0.558	0.167	0.171	0.141	0.193
LCLC-103H	0.401	0.514	0.424	0.44	0.5					1.04	0.973	1.13	1.07	0.503	0.445	0.469	0.469
LK-2	0.182	0.174		0.174	0.152	0.834	0.811	0.64	0.781	0.258		0.223	0.23	0.277	0.272	0.236	0.247
LOU-NH91	0.704	0.78	0.679	0.698	0.761	0.638	0.638	0.643	0.422	0.711	0.741	0.786	0.659	0.383	0.366	0.385	0.412
LU99A	0.258	0.287	0.255	0.277	0.306	0.857	0.878	0.813	0.698	0.61	0.467	0.475	0.437	0.173	0.164	0.184	0.16
LXF-289	0.192	0.178	0.116	0.203	0.187	1	0.957	0.935	0.961	0.924	0.802	0.874	0.864	0.935	0.894	0.9	0.947
NCI-H23		0.431	0.344	0.337	0.375	0.701	0.798	0.805	0.933	0.524	0.523	0.678	0.756	0.655	0.654	0.714	0.774
NCI-H322M		0.49	0.373	0.446	0.436	1.2	1.02	1.19	1.28	1.04	0.861	1.01	1.08	0.61	0.611	0.633	0.578
NCI-H358	0.102	0.0949	0.0962	0.106	0.0813					0.659	0.549	0.542	0.681	0.176	0.172	0.168	0.173
NCI-H522		0.471	0.59	0.58	0.621									1.08	0.891	0.971	0.999
NCI-H650		0.667	0.738	0.502	0.38					0.669		0.761	1.04	1.22	0.932	0.92	0.958
NCI-H661	0.344	0.364	0.372	0.38	0.352					1.08	0.977	0.939	1.11	0.766	0.877	0.932	0.971
NCI-H727		0.754	0.654	0.667	0.793	0.439	0.508	0.498	0.445	0.826	0.745	0.841	0.961				
NCI-H1299						1.1	1.08	1.07	1.15	1.07	0.97	0.942	1.07				
NCI-H1395	0.718	0.633	0.762	0.667	0.648	1.48	1.05	1.02	1.37					0.864	0.851	0.831	1.01
NCI-H1563										0.848	0.875	0.83	0.865	0.751	0.785	0.601	0.639
NCI-H1623		0.466	0.431	0.447	0.524												
NCI-H1648	0.641	0.463	0.685	0.396	0.376									0.737	0.617	0.75	0.818
NCI-H1703						1.01	1.35	1.08	1.47	0.645	0.585	0.608	0.78				
NCI-H1792						0.718	0.621	0.695	0.753	1	0.913	0.992	1.17	0.815	0.777	0.881	0.862
NCI-H1793		0.464			0.293	0.601	0.405	0.497	0.542					0.884		0.806	1.06
NCI-H2342	0.44	0.484	0.452	0.52	0.586									0.771	0.857	0.796	0.796
